# Measurements as given in patent US11419834B2, “Methods for treating diseases or infections caused by or associated with H. pylori using a halogenated salicylanilide” (Rhode Island Hospital, priority 2019, dated 2022).
# How the values were obtained:
# H. pylori infection = assay: Galleria mellonella in vivo infection model; conditions: 25 mg/kg, injected 2 hours after H. pylori inoculation
# Experimental: Assays were performed as described by Giannouli et al. (BMC Microbiol. 2014 Aug. 27; 14:228), an alternative model host for the evaluation of antimicrobial agents against H. pylori infection. Twelve randomly selected G. mellonella larvae (Vanderhorst, Inc., St. Mary's, OH, USA) between 300-350 mg were used for each group in the experiment. H. pylori cells were washed with PBS and diluted to OD600 nm=0.3, before inoculation into G. mellonella larvae. A 10 μL inoculum was injected into the last left proleg using a 10 μL Hamilton syringe. After 2 hours, compounds were administered at into the last right proleg and the wax moths were incubate at 37° C. Niclosamide was administered at a concentration of 25 mg/kg. Clarithromycin administered at a concentration of 10 mg/kg was used as a comparator. Three control groups were included (1) injected with PBS only; (2) inoculated with H. pylori but treated with sham injections; and (3) no manipulation. G. mellonella survival was evaluated up to 120 hours. The surviving larvae were monitored every 24 hours and were considered dead if they were unresponsive to external stimuli (touch). Killing curves and differences in survival were analysed by the Kaplan-Meier method using GraphPad Prism version 6.04 (GraphPad Software, La Jolla, Calif., USA). Statistical analysis (Kruskal-Wallis test) was carried out using the same program.
# [1] = tested on: AGS cells invaded by H. pylori; assay: Invasion, gentamicin protection assay; type: cell-based, Helicobacter pylori; conditions: 2×MIC, 0.5 μg/mL, 20 hours, AGS cell lines
# Experimental: (§1) The AGS (Gastric adenocarcinoma cell lines) cell line was used to examine inhibition of adhesion and invasion of H. pylori (strain 60190) by niclosamide, as described by Schmitt et al. (Front Cell Infect Microbiol. 2013; 3:93). The AGS cells were grown in Dulbecco's Modified Eagle Medium (DMEM, ex. Gibco), supplemented with 10% fetal bovine serum (Gibco) and 1% penicillin/streptomycin (Gibco) and maintained at 37° C. in 5% C02. Then, 5×10^5 cells in antibiotic and serum-free DMEM were seeded in 6-well plates 24 hours prior to infection. H. pylori bacteria at a multiplicity of infection (MOI)=100 were added and allowed to adhere to the surface of the AGS cells. Planktonic bacteria were removed after 2 hours and DMEM with niclosamide (2×MIC) was then added to the wells containing the AGS. The mammalian cells were lysed by 0.1% saponin after 20 hours of incubation and the adhered bacteria were then serially diluted, plated in Brucella agar supplemented with 10% FBS, and incubated as described above. A control arm of DMSO and a comparator using amoxicillin at a concentration of 0.1 μg/mL (10×MIC) was also assessed. […]
# [2] = tested on: H. pylori (strain 60190) adhered to AGS cells; assay: Adhesion of H. pylori to AGS cells; type: cell-based, Helicobacter pylori; conditions: niclosamide 2×MIC, 20 hours, MOI=100
# Experimental: as §1
# [3] = tested on: H. pylori bacteria (strain 60190); assay: Time to kill assay; type: cell-based, Helicobacter pylori; conditions: 4×MIC (1 μg/mL); 10^9 cells/mL
# Experimental: Niclosamide was therefore tested time to kill assays were used to confirm the killing properties of niclosamide against H. pylori. Agar grown H. pylori bacteria (strain 60190) were suspended in fresh Mueller Hinton Broth (MHB) with 10% Fetal bovine serum (FBS) to a density of 10^9 cells/mL and placed into 10 mL tubes (BD Biosciences). […] Aliquots were periodically drawn from the tubes, serially diluted and plated onto Brucella agar (BD Biosciences) supplemented with 10% FBS. CFUs were counted after a 3-day incubation and assays were carried out in duplicate. […] Of note, clarithromycin, a commonly prescribed antibiotic for H. pylori treatment, is also bacteriostatic (De Francesco et al. World journal of gastrointestinal pathophysiology 2, 35 (2011)).
# [4] = tested on: H. pylori bacteria (strain 60190); assay: Multi-step mutation frequency (serial passage resistance study); type: cell-based, Helicobacter pylori
# Experimental: To determine whether H. pylori can develop resistance against niclosamide, bacterial cells were suspended in MHB with 10% FBS at OD600=0.06 in the presence of serially diluted niclosamide and incubated, as described in the antibiotic susceptibility assays sub-section. The standard antibiotics amoxicillin and clarithromycin were used as controls. From the highest drug concentration allowing visible growth at sub-MIC concentration, aliquots were diluted (1:40) into fresh medium. These were used to inoculate the second set of serial drug dilutions as described by Dalhoff et al. (Clin Infect Ds. 2001 Mar. 15; 32 Suppl, 1:S16-22). After a 3-day incubation, H. pylori bacteria (strain 60190) were passaged sequentially over 30 days and the OD was recorded.
# [5] = tested on: H. pylori cells (strain 60190); assay: Motility assay in soft agar; type: cell-based, Helicobacter pylori; conditions: for H. pylori motility (swarming) versus concentration: niclosamide from 0.10 to 0.20 μg/mL (75-200 ng/mL in soft agar)
# H. pylori bacteria = assay: Scanning electron microscopy of morphology; type: cell-based, Helicobacter pylori; conditions: 2 hours
# H. Pylori 51932 = assay: Broth microdilution assay, MIC; type: cell-based; conditions: Helicobacter pylori; strain H. Pylori 51932
# H. pylori strain 60190 = assay: Minimum bactericidal concentration (plating from MIC assay); type: cell-based, Helicobacter pylori; conditions: Helicobacter pylori; H. pylori strain 60190; read-out: MBC
smiles,measurement,setting,value
"O=C(Nc1ccc([N+](=O)[O-])cc1Cl)c1cc(Cl)ccc1O [Niclosamide, niclosamide]",survival of wax-moth larvae up to 120 hours,H. pylori infection,About 60%
same,reduction of intracellular CFU,[1],3 log10 CFU
same,reduction of CFU/mL counts of adhered bacteria,[2],3 log10
same,killing kinetics (bacteriostatic or bactericidal),[3],bacteriostatic
same,development of H. pylori resistance,[4]; 30 day resistance studies,no H. pylori resistance to niclosamide developed
same,change in MIC through at least 10 passages,[4]; at least 10 passages,remained constant
same,increase in MIC during continuous passage,[4]; passaged sequentially over 30 days,remained unchanged
same,H. pylori motility (swarming) versus concentration,[5],impeded H. Pylon swarming movement in a dose-dependent manner
same,H. pylori motility (swarming) versus concentration,[5]; listed as niclosamide,decreased in a dose-dependent manner
same,H. pylori motility,[5]; sub-MIC (0.2 μg/mL),abated
same,morphology (helical shape) by SEM,H. pylori bacteria; 1× MIC,shortened
same,morphology by SEM,H. pylori bacteria; 4× and 8× MIC,Cocco-bacillary
same,effect on bacterial flagella by SEM,H. pylori bacteria; niclosamide treatment,flagellar deformation
same,MIC,H. Pylori 51932,0.5 µg/mL
same,MBC,H. pylori strain 60190,0.5 µg/mL
